The record followed here is paper PMC7154662, “Structural Insight into IAPP‐Derived Amyloid Inhibitors and Their Mechanism of Action” (Angewandte Chemie (International Ed. in English), 2020).

The test has as its target T1, R3-GI (Homo sapiens, UniProt P10997, N54R/S52R/S53R).
T1 construct: linking the two hot segments IAPP(8–18) and IAPP(22–28) in native or N‐methylated form; made in house; host or cells: chemical solid phase peptide synthesis (no expression host)
Briefly: Fluorescence titration: self-association of Fluos-R3-GI with R3-GI. The following applies: Fluos-R3-GI 5 nM titrated with R3-GI; 10 mM sodium phosphate buffer, pH 7.4 (1% HFIP); room temperature, 2-5 min after solution preparation; excitation 492 nm; means (±SEM) from three binding curves; read-out: app. Kd for R3-GI self-association. The source says: Figure 1 R3‐GI self‐assembly. […] On the right, the binding curve is shown. The estimated app. […] Data are means (±SEM) from three binding curves. […] Scale bar: 10 μm.
The sampling of the 12 replicas was combined resulting in the ensemble of conformations were the statistical weight of each conformation is obtained by a simple reweighting scheme based on the final metadynamics bias B. The weight of a conformation X is given by w=exp(+B(X)/kBT), consistently with the quasi static behavior at convergence of well- […]
Coarse-grained modelling of R3-GI oligomers
To investigate the interaction of the peptides with each other, over 100 μs of coarse grain simulations were performed using GROMACS. An initial peptide model was created based on a representative structure from the atomistic ensemble. The Martini 2.2 force field was used to describe the peptide interaction together with the standard Martini water model.
Additionally, an elastic network was applied to conserve structural information. […]
Fluorescence spectroscopic titrations
A JASCO FP-6500 fluorescence spectrophotometer was used and titrations were performed as previously described. Briefly, excitation was at 492 nm and fluorescence emission spectra were recorded between 500 and 600 nm. […]
temperature within 2-5 min following solution preparation. The determined app. […]

Non-standard residues stand in square brackets, D forms with d. Residues, ends and D or L forms follow the SMILES beside them. NMeI = CC[C@H](C)[C@H](NC)C(=O)O; Sar = CNCC(=O)O

T1 sequence (P10997 41-61 S52R/S53R/N54R): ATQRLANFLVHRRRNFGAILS

Regarding `CC[C@H](C)[C@@H](C(=O)N[C@@H](CC(C)C)C(=O)N[C@@H](CO)C(N)=O)N(C)C(=O)[C@H](C)NC(=O)CN(C)C(=O)[C@H](Cc1ccccc1)NC(=O)[C@H](CC(N)=O)NC(=O)[C@H](CCCNC(=N)N)NC(=O)[C@H](CCCNC(=N)N)NC(=O)[C@H](CCCNC(=N)N)NC(=O)[C@H](Cc1c[nH]cn1)NC(=O)[C@@H](NC(=O)[C@H](CC(C)C)NC(=O)[C@H](Cc1ccccc1)NC(=O)[C@H](CC(N)=O)NC(=O)[C@H](C)NC(=O)[C@H](CC(C)C)NC(=O)[C@H](CCCNC(=N)N)NC(=O)[C@H](CCC(N)=O)NC(=O)[C@@H](NC(=O)[C@H](C)N)[C@@H](C)O)C(C)C` [R3-GI] (H-ATQRLANFLVHRRRNF[Sar]A[NMeI]LS-NH2), the Kd was determined as 77.1 nM.
